According to patent US20240114772A1, “ORGANIC ELECTROLUMINESCENT DEVICE” (SFC CO., LTD., priority 2021, published 2024):

Assay: Solubility evaluation at room temperature in methyl benzoate and ethyl benzoate
Format: physicochemical
Details: for solubility: room temperature, concentration of 2 wt %
Procedure: The solubility of each of the compound prepared in the synthesis examples and the comparative compound [BH1] was measured at room temperature in methyl benzoate and ethyl benzoate. The case in which all the components were dissolved at a concentration of 2 wt % was evaluated as O, and the case in which all the components were not dissolved was evaluated as X, and the results are shown in the following Table 1.

Row | SMILES | solubility with respect to methyl benzoate [wt %] | solubility (ethyl benzoate) | solubility (methyl benzoate)
1 | c1ccc2c(-c3c4ccccc4c(-c4cccc5ccccc45)c4ccccc34)cccc2c1 [BH1, reference compound] | < 2 |  | 
2 | CC(C)c1cc(-c2c3ccccc3c(-c3cc4ccccc4c4ccccc34)c3ccccc23)cc(C(C)C)c1 [Compound 46] |  | ◯ | ◯
3 | [2H]c1c([2H])c([2H])c(-c2c3ccccc3c(-c3c(CCC)c4ccccc4c4ccccc34)c3ccccc23)c([2H])c1[2H] [Compound 55] |  | ◯ | ◯
